Some test systems named below: OVCAR-5 ovarian; NCI-H522 lung; IGROV1 ovarian; OVCAR-4 ovarian; RXF 393 renal; A498 renal; SF-295 CNS; UACC-257 melanoma; SW-620 colon; MDA-MB-435.
Assay in all cases: inhibition of tumour cell growth, NCI panel, 48 h

SMILES strings stand for the structures. “And” between values parts separate entries of the source, which are not always exact repeats. Equal entries are not always repeated.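 Method: 48-hour compound exposure of cells in 96-well plates, five concentrations, linear interpolation of endpoints. The concentration for 50% growth inhibition is given as GI50. TGI marks complete inhibition of growth.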 A value given as a limit tells only on which side of the number the result lay.

As for `NC(=O)Nc1cc(-c2cccc(F)c2)sc1C(=O)N[C@H]1CCCNC1`, the GI50 was 173 nM and 361 nM in the assay with OVCAR-5 ovarian; 291 nM and 273 nM in the assay on NCI-H522 lung; 70.1 nM and 270 nM with IGROV1 ovarian; 222 nM and 310 nM in the assay on OVCAR-4 ovarian; 5.54 nM and 39.5 nM in the assay with RXF 393 renal; 17.3 nM and 38.5 nM in the assay on A498 renal. Further, the GI50 in the assay with SF-295 CNS was 39.7 nM and 88.2 nM; in the assay on UACC-257 melanoma it was 2360 nM and 1910 nM; in the assay on SW-620 colon, 284 nM and 423 nM; in the assay on MDA-MB-435, 69 nM and 181 nM. In addition, the TGI with OVCAR-5 ovarian was > 6200 nM and 4400 nM; in the assay with NCI-H522 lung it was 4870 nM and 2230 nM; in the assay with IGROV1 ovarian it was 1160 nM and 1740 nM; in the assay with OVCAR-4 ovarian, > 10000 nM and 17300 nM; with RXF 393 renal, 25.5 nM and 244 nM; in the assay with A498 renal, 98.4 nM and 194 nM. The TGI in the assay on SF-295 CNS was 776 nM and 2870 nM; with UACC-257 melanoma, > 10000 nM and 9820 nM; in the assay with SW-620 colon it was > 5030 nM and 3360 nM; with MDA-MB-435, 371 nM and 668 nM.

As for `COc1ccccc1CNCCCN1C(=O)c2ccc3c4c(ccc(c24)C1=O)C(=O)N(CCCN)C3=O`, the GI50 is 1600 nM in the assay on OVCAR-5 ovarian; 1510 nM in the assay on NCI-H522 lung; 1350 nM in the assay on IGROV1 ovarian; 230 nM in the assay on OVCAR-4 ovarian; 628 nM with RXF 393 renal; 1570 nM in the assay with A498 renal. Further, the GI50 is 1310 nM in the assay on SF-295 CNS, 740 nM with UACC-257 melanoma, 589 nM in the assay on SW-620 colon and 196 nM with MDA-MB-435. Further, the TGI came to 3560 nM in the assay with OVCAR-5 ovarian; 2970 nM in the assay on NCI-H522 lung; 3480 nM in the assay on IGROV1 ovarian; 843 nM in the assay on OVCAR-4 ovarian; 1830 nM in the assay on RXF 393 renal; 3040 nM with A498 renal. Also, the TGI is 2810 nM in the assay on SF-295 CNS, 2270 nM with UACC-257 melanoma, 2330 nM with SW-620 colon and 413 nM in the assay with MDA-MB-435.

As for `Cc1ccc(-c2csc(NC(=O)N3CCN(c4cc5c(cc4F)c(=O)c(C(=O)O)cn5C4CC4)CC3)n2)cc1`, the GI50 with OVCAR-5 ovarian was 867 nM; in the assay on NCI-H522 lung, 291 nM; in the assay with IGROV1 ovarian, 482 nM; with OVCAR-4 ovarian, 2640 nM; in the assay with RXF 393 renal, 602 nM; in the assay on A498 renal it was 572 nM. Moreover, the GI50 with SF-295 CNS was 762 nM; in the assay on UACC-257 melanoma it was 2000 nM; with SW-620 colon, 1900 nM; in the assay with MDA-MB-435, 2060 nM. For the same compound, the TGI in the assay on OVCAR-5 ovarian was greater than 100000 nM; in the assay on NCI-H522 lung, 2150 nM; in the assay with IGROV1 ovarian it was greater than 100000 nM; in the assay on OVCAR-4 ovarian, greater than 100000 nM; in the assay with RXF 393 renal it was 55000 nM; with A498 renal, 9160 nM. The TGI was 28500 nM with SF-295 CNS, 6580 nM in the assay on UACC-257 melanoma, greater than 100000 nM in the assay with SW-620 colon and greater than 100000 nM with MDA-MB-435.

With `Cc1ccc(-c2nc3nc(-c4ccccc4)nc(N4CCNCC4)c3o2)cc1`, the GI50 with OVCAR-5 ovarian is 1310 nM; in the assay with NCI-H522 lung, 745 nM; in the assay with IGROV1 ovarian, 577 nM; in the assay on OVCAR-4 ovarian, 435 nM; in the assay with RXF 393 renal, 1430 nM; with A498 renal, 1470 nM. Moreover, the GI50 in the assay on SF-295 CNS was 589 nM; in the assay on UACC-257 melanoma, 1980 nM; in the assay with SW-620 colon, 230 nM; in the assay on MDA-MB-435, 1580 nM. The TGI with OVCAR-5 ovarian was found to be 2740 nM; in the assay on NCI-H522 lung it was 2260 nM; in the assay on IGROV1 ovarian, 1410 nM; with OVCAR-4 ovarian it was 1600 nM; with RXF 393 renal it was 2970 nM; in the assay with A498 renal, 2970 nM. Moreover, the TGI in the assay with SF-295 CNS stood at 1190 nM; with UACC-257 melanoma, 3800 nM; in the assay with SW-620 colon it was 540 nM; with MDA-MB-435, 3040 nM.

As for `NCCN.O=C([O-])CN1CCOCC1.[OH-].[Pt+4]`, the GI50 in the assay with OVCAR-5 ovarian, with NCI-H522 lung, in the assay with IGROV1 ovarian, in the assay on OVCAR-4 ovarian, with RXF 393 renal and in the assay with A498 renal was greater than 100000 nM each time. Further, the GI50 in the assay on SF-295 CNS, in the assay with UACC-257 melanoma, in the assay with SW-620 colon and with MDA-MB-435 was greater than 100000 nM throughout. The TGI in the assay with OVCAR-5 ovarian, in the assay with NCI-H522 lung, in the assay with IGROV1 ovarian, with OVCAR-4 ovarian, with RXF 393 renal and in the assay on A498 renal was greater than 100000 nM in each case. For the same compound, the TGI in the assay on SF-295 CNS, in the assay on UACC-257 melanoma, in the assay on SW-620 colon and in the assay with MDA-MB-435 was greater than 100000 nM in each case.

On to `O=C1C(SCCO)=C(SCCO)C(=O)N1c1ccc(-c2ccccc2)cc1`, for which the GI50 is 3610 nM in the assay on OVCAR-5 ovarian; 7510 nM with NCI-H522 lung; 2020 nM in the assay with IGROV1 ovarian; 932 nM in the assay with OVCAR-4 ovarian; 1190 nM with RXF 393 renal; 18000 nM with A498 renal. Moreover, the GI50 with SF-295 CNS was 20700 nM; in the assay on UACC-257 melanoma it was 3320 nM; in the assay on SW-620 colon it was 1450 nM; with MDA-MB-435, 4980 nM. Besides, the TGI with OVCAR-5 ovarian amounted to 11000 nM; with NCI-H522 lung, 22600 nM; with IGROV1 ovarian it was 4670 nM; in the assay on OVCAR-4 ovarian, 3100 nM; in the assay on RXF 393 renal, 2730 nM; in the assay with A498 renal, 37900 nM. The TGI in the assay with SF-295 CNS was 46100 nM; in the assay with UACC-257 melanoma it was 7620 nM; with SW-620 colon, 3940 nM; in the assay with MDA-MB-435 it was 12800 nM.

Consider `O=c1cc(-c2cccnc2)[nH]c2cc3c(cc12)OCO3`, for which the TGI in the assay with OVCAR-5 ovarian was greater than 100000 nM; in the assay with NCI-H522 lung, greater than 21600 nM; with IGROV1 ovarian, greater than 28100 nM; in the assay on OVCAR-4 ovarian it was greater than 100000 nM; with RXF 393 renal it was greater than 96300 nM; with A498 renal, greater than 69900 nM. Also, the TGI with SF-295 CNS was greater than 38500 nM; in the assay with UACC-257 melanoma, greater than 100000 nM; in the assay on SW-620 colon, greater than 100000 nM; in the assay with MDA-MB-435, 4600 nM.

Take `O=C1C(c2cnc3ccccc3n2)=C(O)c2ccccc21`: the TGI in the assay with OVCAR-5 ovarian was greater than 100000 nM; in the assay on NCI-H522 lung, greater than 100000 nM; in the assay with IGROV1 ovarian it was greater than 100000 nM; in the assay with OVCAR-4 ovarian, greater than 100000 nM; in the assay with RXF 393 renal, 36100 nM; in the assay on A498 renal it was greater than 100000 nM. Further, the TGI in the assay with SF-295 CNS is greater than 88100 nM; in the assay with UACC-257 melanoma it was greater than 95900 nM; in the assay with SW-620 colon, greater than 56200 nM; in the assay with MDA-MB-435, greater than 100000 nM.

For the compound `OCCn1cnc2c(SCc3ccccc3)ncnc21`, the TGI in the assay on OVCAR-5 ovarian, in the assay on NCI-H522 lung, with IGROV1 ovarian, in the assay with OVCAR-4 ovarian, in the assay with RXF 393 renal and in the assay on A498 renal was greater than 100000 nM throughout. Also, the TGI with SF-295 CNS, in the assay with UACC-257 melanoma, in the assay with SW-620 colon and with MDA-MB-435 was greater than 100000 nM each time.
